Laboratory results published in US11031562B2, “Metal complexes” (Merck Patent GmbH, priority 2015, dated 2021).

Legend:
Assay type in all cases: physicochemical
[1] = Photostability in anhydrous C6D6 solution under irradiation with light of about 455 nm, checked by 1H NMR; conditions: irradiation with light of wavelength about 455 nm
[2] = Photoluminescence in solution (PL-max., PL quantum efficiency); conditions: solvent toluene; room temperature, degassed solution
[3] = Thermal stability: thermal storage at 360° C. for 7 days, checked by 1H NMR
[4] = Oxidation and reduction potentials by CV (HOMO, LUMO); conditions: in eV (unit assumed); for HOMO: Ox. in DCM; for LUMO: Red. in THF

Row | Photo. stab. [1] | PL-max. [2] | PLQE [2] | Therm. stab. [3] | HOMO [4] | LUMO [4] | SMILES
1 | no decomp. | 552 | 0.94 | no decomp. | −5.66 | −2.64 | O=C1Oc2cc3cc(c2)OC(=O)c2ccc4[c](c2)[Ir-3]25([c]6cc1ccc6-c1cccc[n+]12)([c]1cc(ccc1-c1cccc[n+]15)C(=O)O3)[n+]1ccccc1-4 [Ir(L200)]
2 | decomposition | 516 | 0.97 | decomposition | −5.05 | −1.71 | Cc1cc2[n+](cc1-c1ccccc1)[Ir-3]13([c]4ccccc4-c4cccc[n+]41)([c]1ccccc1-c1cccc[n+]13)[c]1ccccc1-2 [Ir2, reference compound]
3 | no decomp. | 539 | 0.95 | no decomp. | −5.34 | −2.29 | CN1C(=O)c2ccc3[c](c2)[Ir-3]245([c]6cc(ccc6-c6cccc[n+]62)C(=O)N(C)c2cc1cc(c2)N(C)C(=O)c1ccc([c]4c1)-c1cccc[n+]15)[n+]1ccccc1-3 [Ir(L300)]

Row | SMILES | Photo. stab. [1] | PL-max. [2] | PLQE [2] | Therm. stab. [3] | HOMO [4] | LUMO [4]
4 | c1ccc(-c2cc(-c3ccccc3)cc(-c3cccc(-c4cc[c]5c(c4)-c4cccc[n+]4[Ir-3]546([c]5ccc(-c7cccc(-c8cc(-c9ccccc9)cc(-c9ccccc9)c8)c7)cc5-c5cccc[n+]54)[c]4ccc(-c5cccc(-c7cc(-c8ccccc8)cc(-c8ccccc8)c7)c5)cc4-c4cccc[n+]46)c3)c2)cc1 [Ir1, reference compound] | – | 513 | 0.97 | – | −5.09 | −1.99
